From US6924302B2, “Substituted triazole diamine derivatives as kinase inhibitors” (Ortho McNeil Pharmaceutical, Inc., priority 2000, dated 2005)

Molecular target: T1, CDK4/D1 complex (Mus musculus, UniProt P30285)
T1 construct: made in house; host or cells: insect cells (baculovirus co-infection)
Assay: Kinase Selectivity Assay CDK4
Format: biochemical
Settings: Tables 2a-2k
Description: Assays to test compound inhibition of other kinases were preformed using methods that measure the amount of phosphorylation of a biotinylated peptide substrate. Biotinylated peptide substrates were selected from the literature as appropriate for the enzyme being evaluated. The general procedure used to assay for kinase activity is as follows: A kinase reaction mix was prepared in 50 mM Tris-HCl pH=8, 10 mM MgCl2, 0.1 mM Na3VO4, 1 mM DTT, 10 μM ATP, 0.25-1 μM biotinylated peptide substrate, 0.2-0.82 μCuries per well ^33P-γ-ATP [2000-3000 Ci/mmol]. Assay conditions vary slightly for each protein kinase, for example, insulin receptor kinase requires 10 mM MnCl2 for activity and Calmodulin-dependent protein kinase requires calmodulin and 10 mM CaCl2. These assay conditions are known in the art. The reaction mixture was dispensed into the wells of a streptavidin coated Flashplate and 1 μl drug stock in 100% DMSO was added to a 100 μl reaction volume resulting in a final concentration of 1% DMSO on the reaction. Enzyme was diluted in 50 mM Tris-HCl pH=8.0, 0.1% BSA and add to each well. The reaction was incubated for one hour at 30° C. in the presence of compound. After one hour the reaction mix was aspirated from the plate and the plate was washed with PBS containing 100 mM EDTA. The plate was read on a scintillation counter to determine ^33P-γ-ATP incorporated into the immobilized peptide. Test compounds were assayed in duplicate at 8 concentrations [100 uM, 10 uM, 1 uM, 100 nM, 10 nM, 1 nM, 100 pM, 10 pM]. A maximum and minimum signal for the assay was determined on each plate. The IC50 was calculated from the dose response curve of the percent inhibition of the maximum signal in the assay according to the formula [max signal—background/test compound signal—background (100)=% inhibition] by graphing the percent inhibition against the log concentration of test compound. Known inhibitor compounds appropriate for the kinase being assayed were also included on each plate. […]

T1 sequence (P30285 whole entry): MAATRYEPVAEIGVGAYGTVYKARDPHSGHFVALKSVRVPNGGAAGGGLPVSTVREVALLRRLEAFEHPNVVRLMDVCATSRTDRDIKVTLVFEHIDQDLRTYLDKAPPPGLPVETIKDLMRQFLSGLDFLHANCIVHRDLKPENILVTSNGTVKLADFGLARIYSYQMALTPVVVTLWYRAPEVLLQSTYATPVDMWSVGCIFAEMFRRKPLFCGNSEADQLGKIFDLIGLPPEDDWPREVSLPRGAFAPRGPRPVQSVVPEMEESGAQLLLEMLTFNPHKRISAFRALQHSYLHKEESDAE
T1 sequence (P25322 whole entry partner): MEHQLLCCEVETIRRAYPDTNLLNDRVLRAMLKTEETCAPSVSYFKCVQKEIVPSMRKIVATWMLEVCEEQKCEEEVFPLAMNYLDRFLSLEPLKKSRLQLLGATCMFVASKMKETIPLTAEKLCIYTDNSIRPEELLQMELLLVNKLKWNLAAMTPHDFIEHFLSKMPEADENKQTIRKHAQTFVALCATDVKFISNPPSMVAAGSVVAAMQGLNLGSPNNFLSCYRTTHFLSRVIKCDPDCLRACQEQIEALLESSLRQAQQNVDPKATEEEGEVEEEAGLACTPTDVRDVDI

Row | Structure (SMILES) | IC50 [nM]
1 | CN1CCN(c2ccc(Nc3nc(N)n(C(=O)c4c(F)cccc4F)n3)cc2)CC1 [Cpd 71, 1-(2,6-difluorobenzoyl)-N^3-[4-(4-methyl-1-piperazinyl)phenyl]-1H-1,2,4-triazole-3,5-diamine] | 129
2 | Nc1nc(Nc2ccc(S(N)(=O)=O)cc2)nn1C(=O)c1c(F)cccc1Cl [Cpd 70, 4-[[5-amino-1-(2-chloro-6-fluorobenzoyl)-1H-1,2,4-triazol-3-yl]amino]-benzenesulfonamide] | 167
3 | Cc1ccc(F)c(C(=O)n2nc(Nc3ccc(S(N)(=O)=O)cc3)nc2N)c1Cl [Cpd 69, 4-[[5-amino-1-(2-chloro-6-fluoro-3-methylbenzoyl)-1H-1,2,4-triazol-3-yl]amino]-benzenesulfonamide] | 187

System: MDA-MB-231
Assay: Inhibition of Cell Proliferation (14C-thymidine incorporation), MDA-MB-231
Format: cell-based
Settings: Homo sapiens, MDA-MB-231 cell line
Description: The ability of a test compound to inhibit the proliferation of cell growth was determined by measuring incorporation of ^14C-labelled thymidine into newly synthesized DNA within the cells. […] Cells were trypsinized and counted and 3000-8000 cells were added to each well of a 96-well CytoStar tissue culture treated scintillating microplate (Amersham #RPNQ0160) in complete medium in a volume of 100 μl. Cells were incubated for 24 hours in complete medium at 37° C. in an atmosphere containing 5% CO2. Next, 1 μl of test compound in 100% DMSO was added to the wells of the plate. DMSO only was added to control wells. Cells were incubated for 24 more hours in complete medium at 37° C. in an atmosphere containing 5% CO2. […] The plate was incubated for 24 hours at 37° C. plus 5% CO2 in drug plus ^14C-thymidine. The contents of the plate were discarded into a ^14C radioactive waste container by inverting the plate and the plate was washed twice with 200 μl PBS. 200 μl of PBS is added to each well. […] The degree of methyl ^14C-thymidine incorporation was quantified on a Packard Top Count.

Row | Structure (SMILES) | IC50 [nM]
4 | Nc1nc(Nc2ccc(S(N)(=O)=O)cc2)nn1C(=O)C1CCCCC1 [Cpd 39, 4-[[5-amino-1-(cyclohexylcarbonyl)-1H-1,2,4-triazol-3-yl]amino]-benzenesulfonamide] | 2910
5 | Cc1nc(C)c(C(=O)n2nc(Nc3ccc(S(N)(=O)=O)cc3)nc2N)s1 [Cpd 34, 4-[[5-amino-1-[(2,4-dimethyl-5-thiazolyl)carbonyl]-1H-1,2,4-triazol-3-yl]amino]-benzenesulfonamide] | 898
6 | Nc1nc(Nc2ccc(S(=O)(=O)N3CCCCC3)cc2)nn1C(=O)c1cccs1 [Cpd 23, N^3-[4-(1-piperidinylsulfonyl)phenyl]-1-(2-thienylcarbonyl)-1H-1,2,4-triazole-3,5-diamine] | 868
7 | Nc1nc(Nc2ccc(S(N)(=O)=O)cc2)nn1C(=O)C1CCCC1 [Cpd 38, 4-[[5-amino-1-(cyclopentylcarbonyl)-1H-1,2,4-triazol-3-yl]amino]-benzenesulfonamide] | 6760
8 | Nc1nc(Nc2ccc(S(N)(=O)=O)cc2)nn1C(=O)c1sccc1Br [Cpd 35, 4-[[5-amino-1-[(3-bromo-2-thienyl)carbonyl]-1H-1,2,4-triazol-3-yl]amino]-benzenesulfonamide] | 1140
9 | CCc1ccc(C(=O)n2nc(Nc3ccc(S(N)(=O)=O)cc3)nc2N)s1 [Cpd 32, 4-[[5-amino-1-[(5-ethyl-2-thienyl)carbonyl]-1H-1,2,4-triazol-3-yl]amino]-benzenesulfonamide] | 131
10 | Nc1nc(Nc2ccc(S(N)(=O)=O)cc2)nn1C(=O)c1cccs1 [Cpd 14, 4-[[5-amino-1-(2-thienylcarbonyl)-1H-1,2,4-triazol-3-yl]amino]-benzenesulfonamide] | 756
11 | Nc1nc(Nc2ccc(S(N)(=O)=O)cc2)nn1C(=O)c1c(F)cccc1F [Cpd 1, 4-[[5-amino-1-(2,6-difluorobenzoyl)-1H-1,2,4-triazol-3-yl]amino]-benzenesulfonamide] | 587
